The values that follow come from ChEMBL document CHEMBL1133707, “Heteroarylmethoxyphenylalkoxyiminoalkylcarboxylic acids as leukotriene biosynthesis inhibitors” (J Med Chem, 2000).

The test system of series [1] is Rattus norvegicus. The series can be described thus: Percent inhibition was determined for in vivo ionophore induced rat pleurisy at a dose of 10 mg/kg.
A short description of series [2]: half life was determined in plasma of dog. Type of series: ADME, organism-based, Canis lupus familiaris.
Series [3] in a line: half life was determined in plasma of monkey. Type of series: ADME. Conditions: simiiformes.
For series [4], the species on record is Homo sapiens. The series can be described thus: Inhibition of Calcium Ionophore (A-23187)-stimulated LTB4 formation in Human whole blood assay. The series is classed as functional.
The test system of series [5] is Rattus norvegicus. As to the kind of experiment: In vivo inhibition of ionophore induced rat pleurisy. Type of series: functional.
Series [6] relates to Rattus norvegicus. As to the kind of experiment: Effective dose was determined in in vivo which inhibits 50% of the mean value in rat anaphylaxis. The series is classed as functional.
Series [7] concerns Rattus norvegicus. As to the kind of experiment: Percent inhibition was determined for in vivo ionophore induced rat pleurisy at a dose of 0.3 mg/kg.
For series [8], the target named is T1, Polyunsaturated fatty acid 5-lipoxygenase (Homo sapiens) (UniProt P09917).
T1 sequence (whole entry): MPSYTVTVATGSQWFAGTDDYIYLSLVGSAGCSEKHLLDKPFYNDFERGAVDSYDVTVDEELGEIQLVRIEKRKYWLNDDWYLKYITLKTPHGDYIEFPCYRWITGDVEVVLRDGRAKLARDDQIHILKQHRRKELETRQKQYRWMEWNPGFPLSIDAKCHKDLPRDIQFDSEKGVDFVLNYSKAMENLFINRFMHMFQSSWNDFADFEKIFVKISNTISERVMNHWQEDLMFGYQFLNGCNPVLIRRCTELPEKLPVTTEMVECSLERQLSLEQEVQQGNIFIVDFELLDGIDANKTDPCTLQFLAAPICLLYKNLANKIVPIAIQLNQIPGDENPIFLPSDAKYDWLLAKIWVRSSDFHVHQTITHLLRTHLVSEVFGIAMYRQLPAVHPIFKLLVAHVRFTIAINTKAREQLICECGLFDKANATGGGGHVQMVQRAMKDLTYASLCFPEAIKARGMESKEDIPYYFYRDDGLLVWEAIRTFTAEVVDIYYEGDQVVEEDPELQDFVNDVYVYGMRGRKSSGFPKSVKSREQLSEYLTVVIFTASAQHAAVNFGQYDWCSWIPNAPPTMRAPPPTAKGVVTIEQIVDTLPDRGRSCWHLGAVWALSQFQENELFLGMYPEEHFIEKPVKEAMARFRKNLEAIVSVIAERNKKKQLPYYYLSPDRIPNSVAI
As to the kind of experiment: Inhibition of Calcium Ionophore (A-23187)-stimulated LTB4 formation in Human Neutrophil assay at 100 uM. Type of series: functional.

Series [9] deals with Rattus norvegicus. As to the kind of experiment: Percent inhibition was determined for in vivo ionophore induced rat pleurisy at a dose of 3 mg/kg. Type of series: functional.
Series [10] relates to Rattus norvegicus. As to the kind of experiment: Effective dose was determined for in vivo ionophore induced rat pleurisy. The series is classed as functional.
Series [11] can be described thus: half life was determined in plasma of rat. Type of series: ADME, organism-based.
Series [12] is filed under the species Homo sapiens. As to the kind of experiment: Inhibition of Calcium Ionophore (A-23187)-stimulated LTB4 formation in Human whole blood assay at a concentration of 12.5 nM. The series is classed as functional.
Series [13] concerns the target T1, Polyunsaturated fatty acid 5-lipoxygenase (Homo sapiens). The series can be described thus: Inhibition of Calcium Ionophore (A-23187)-stimulated LTB4 formation in Human Neutrophil assay at 100 nM.

For the molecule `O=C(O)/C=N/OCC(c1ccc(OCc2ccc3ccccc3n2)cc1)C1CCCCC1` (stereo unspecified), the I in the series with Rattus norvegicus [1] is on record as 73%.

The half-life is the time needed for the level to fall by half in the phase considered. Usually IC50 stands for the midpoint of a concentration-inhibition curve. The ED50 is the dose that gives a 50% effect, or the effect in half of the subjects. For `C/C(=N\OC(c1ccc(OCc2ccc3ccccc3n2)cc1)C1CCCCC1)C(=O)O` (stereo unspecified), the half-life in series [2] is 5.6 h; in series [3] it was 1.5 h. Moreover, the 50% inhibitory concentration (IC50) in the series filed under Homo sapiens [4] came out at 1800 nM. For the same molecule, the median effective dose (ED50) in the series with Rattus norvegicus [5] is 0.5 mg/kg; in the series with Rattus norvegicus [6], 1.2 mg/kg.

By Inhibition is commonly meant the share of the control response that was lost under treatment. In the case of `C/C(=N\OC(c1ccc(OCc2ccc3ccccc3n2)cc1)C1CCCCC1)C(=O)[O-].[Na+]` (stereo unspecified), the Inhibition in the series listed under Homo sapiens [4] came to 72%. The I in the series on Rattus norvegicus [7] was 74%.

Broadly, the inhibition is how much of the control response was suppressed. Consider `COc1cc(OCc2ccc3ccccc3n2)ccc1C(O/N=C(\C)C(=O)O)C1CCCCC1` (stereo unspecified), for which the inhibition in [8] turned out to be 98%. In the series with Rattus norvegicus [9], this molecule gave an I of 32%.

Regarding `CC(C)(CC(O/N=C/C(=O)O)c1ccc(OCc2ccc3ccccc3n2)cc1)c1ccccc1` (stereo unspecified), it took a dose of 4 mg/kg to reach the 50% effect level in the series on Rattus norvegicus [10] (ED50).

Consider `C/C(=N\OC(c1ccc(OCc2nc(-c3ccc(C(C)C)cc3)cs2)cc1)C1CCCCC1)C(=O)O` (stereo unspecified), for which, in [8], the inhibition was determined as 57%. Further, the I with Rattus norvegicus [9] was 17%.

`CC(C)(C)SC/C(=N\OC(c1ccc(OCc2ccc3ccccc3n2)cc1)C1CCCCC1)C(=O)O` (stereo unspecified) gave an I in the series with Rattus norvegicus [10] of 47%.

In the case of `C/C(=N\O[C@H](c1ccc(OCc2ccc3ccccc3n2)cc1)C1CCCCC1)C(=O)[O-].[Na+]`, the half-life in [11] is 10.3 h; in series [2], 5.6 h; in [3], 1.6 h. Besides, in the series listed under Homo sapiens [4] (Homo sapiens, Blood), the half-maximal inhibitory concentration (IC50) is 720 nM. The median effective dose (ED50) is 0.14 mg/kg in the series with Rattus norvegicus [5] and 0.13 mg/kg with Rattus norvegicus [6].

Consider `C/C(=N\OC(c1ccc(OCc2ccc3ccccc3n2)cc1Cl)C1CCCCC1)C(=O)O` (stereo unspecified), for which the median effective dose (ED50) in the series with Rattus norvegicus [10] is 0.8 mg/kg.

Consider `C/C(=N/OC(c1ccc(OCc2ccc3ccccc3n2)cc1)C1CCCCC1)C(=O)O` (stereo unspecified), for which the Inhibition in the series filed under Homo sapiens [12] is 59%.

The molecule `C/C(CC(=O)O)=N\OC(c1ccc(OCc2ccc3ccccc3n2)cc1)C1CCCCC1` (stereo unspecified) showed an I with Rattus norvegicus [9] of 68%. Also, the inhibition in series [13] is 40%.

`C/C(=N\O[C@H](c1ccc(OCc2ccc3ccccc3n2)cc1)C1CCCCC1)C(=O)O`: the half-life in series [11] was 11.8 h; in series [2], 4.6 h; in [3] it was 4 h. Further, the 50% inhibitory concentration (IC50) in the series filed under Homo sapiens [4] was found to be 840 nM. The I with Rattus norvegicus [7] turned out to be 43%.

For `C/C(=N\O[C@@H](c1ccc(OCc2ccc3ccccc3n2)cc1)C1CCCCC1)C(=O)O`, the half-life was 4.5 h in [2] and 3.8 h in series [3]. In the series filed under Homo sapiens [4] (Homo sapiens, Blood), the Inhibition turned out to be 63%. The molecule further showed an I in the series on Rattus norvegicus [9] of 29%.

With `C/C(=N\OC(c1ccc(OCc2cc(-c3ccccc3)on2)cc1)C1CCCCC1)C(=O)O` (stereo unspecified), the inhibition in [8] was 61%. The I in the series on Rattus norvegicus [9] is given as 0%.

Turning to `CC(=NOC(c1ccc(OCc2ccc3ccccc3n2)cc1)C1CCCCC1)C(=O)O` (stereo unspecified), the half-life in series [11] was 1 h; in [2] it was 2 h; in [3], 5.4 h. Further, the 50% inhibitory concentration (IC50) in the series filed under Homo sapiens [4] (Homo sapiens, Blood) was 2100 nM. In addition, the 50% effective dose (ED50) in the series with Rattus norvegicus [6] was found to be 1.2 mg/kg. For the same molecule, the I in the series on Rattus norvegicus [9] was 89%.
